pEC50: −log10 of the molar value.
Assays:
[1] = test system: Kunming mice; assay: Drug-induced loss of righting reflex in mice; type: in vivo; settings: 60 mg/kg, single bolus via tail vein
Source text: (§1) In anesthetic activity tests, latency generally refers to the period between the start of administration of a drug to a subject and the moment that the subject becomes unconscious. A short latency is desirable, since it represents fast onset of the drug.
(§2) The duration of anesthesia generally refers to the period between the moment that a subject becomes unconscious and the moment that the subject regains consciousness. The durations will be different for different animal models or animal species. An over-long duration of anesthesia may result in adverse suppressive effects on the cardiovascular and respiratory systems, such as side effects on the nervous system, including drowsiness, dizziness, etc.; at the same time, an over-short duration of anesthesia may affect the anesthetic effect, causing dose increase of anesthetic during surgery and other issues.
Kunming mice (male, 18-25 g) were randomly divided into several groups. After administering the drugs in a single bolus via the tail vein, the latency to loss of righting reflex and the duration of loss of righting reflex were recorded.

[2] = test system: Rhesus monkeys; assay: Anesthetic effects in monkeys (loss of consciousness); type: in vivo; settings: intravenous single bolus
Source text: as §1, §2
Rhesus monkeys (male, 5-6 kg) were randomly divided into several groups. After administering the drugs intravenously in a single bolus, the latency to and the duration of loss of consciousness were recorded.

[3] = test system: GABA Cl− current, HEK293T cells; assay: Cellular GABA activation current via whole-cell patch clamp; type: cell-based; settings: Homo sapiens, HEK-293T, with 1 μM GABA, holding potential −60 mV; for Emax at 10 µM: concentration 10 μM; for pEC50: read-out: EC50 (concentration at half of Emax); for Emax at 30 µM: concentration 30 μM
Experimental: Test compounds were dissolved in external solution (NaCl 140 mM, KCl 4.7 mM, HEPES 10 mM. CaCl2 2 mM, glucose 11 mM, and MgCl2 1 mM, pH 7.4) at various concentrations. HEK293T cells were plated on glass cover slips, and incubated in DMEM medium at 37° C. and 5% CO2 for 24 h.
An HEKA EPC 10 USB patch clamp amplifier was used in the whole-cell recording of GABA Cl^− current. 1 μM GABA was used to excite Cl^− current. Cells were voltage clamped at a holding potential of −60 mV, and treated with the test compounds of different concentrations together with 1 μM of GABA. The Cl^− current induction effect of the test compounds on the same cell, the maximum percentage of current potentiation (Emax), and the concentration of test compounds at half of Emax (EC50) were recorded.

[4] = read-out: Emax (maximum percentage of current potentiation)

SMILES | Duration of loss of righting reflex [1] [min] | Latency to loss of righting reflex [1] [min] | Latency to loss of consciousness ([2]; 6 mg/kg) [min] | pEC50 [3] | Duration of loss of consciousness ([2]; 8 mg/kg) [min] | other results
COC(=O)CC[C@@H]1N=C(c2ccccn2)c2cc(Cl)ccc2-n2c(C(C)C)nnc21 [Example 31, (S)-methyl 3-(8-chloro-1-isopropyl-6-(pyridin-2-yl)-4H-benzo[f][1,2,4]triazolo[4,3-a][1,4]diazepin-4-yl)propanoate] | 17.82 | 0.16 |  |  |  | 
COC(=O)CC[C@@H]1N=C(c2ccccn2)c2cc(Br)ccc2-n2c(C)cnc21 [Remimazolam, reference compound] |  | 0.28 | 5.50 |  |  | Latency to loss of consciousness ([2]; 4 mg/kg): 5.34 min
COC(=O)CC[C@@H]1N=C(c2ccccn2)c2cc(Br)ccc2-n2c(C3CC3)cnc21 [Example 5, (S)-methyl 3-(8-bromo-1-cyclopropyl-6-(pyridin-2-yl)-4H-benzo[f]imidazo[1,2-a][1,4]diazepin-4-yl)propanoate] | 23.33 |  |  | 6.44 |  | Emax at 10 µM [3, 4]: 160%
CCc1cnc2n1-c1ccc(Br)cc1C(c1ccccn1)=N[C@H]2CCC(=O)OC [Example 15, (S)-methyl 3-(8-bromo-1-ethyl-6-(pyridin-2-yl)-4H-benzo[f]imidazo[1,2-a][1,4]diazepin-4-yl)propanoate] |  | 0.24 | 2.75 |  |  | Duration of loss of consciousness ([2]; 4 mg/kg): 37.50 min; Latency to loss of consciousness ([2]; 4 mg/kg): 3.75 min; Duration of loss of consciousness ([2]; 6 mg/kg): 49.00 min
COC(=O)CC[C@@H]1N=C(c2ccccc2F)c2cc(Cl)ccc2-n2cnnc21 [Example 17, (S)-methyl 3-(8-chloro-6-(2-fluorophenyl)-4H-benzo[f][1,2,4]triazolo[4,3-a][1,4]diazepin-4-yl)propanoate] | 18.51 |  |  |  | 52.50 | 
COC(=O)CC[C@@H]1N=C(c2ccccc2F)c2cc(Cl)ccc2-n2c(C3CC3)nnc21 [Example 18, (S)-methyl 3-(8-chloro-1-cyclopropyl-6-(2-fluorophenyl)-4H-benzo[f][1,2,4]triazolo[4,3-a][1,4]diazepin-4-yl)propanoate] | 25.61 | 0.19 | 5.09 | 6.33 |  | Emax at 10 µM [3, 4]: 347%; Duration of loss of consciousness ([2]; 1 mg/kg): 41.15 min; Latency to loss of consciousness ([2]; 1 mg/kg): 3.30 min; Latency to loss of consciousness ([2]; 4 mg/kg): 5.10 min
COC(=O)CC[C@@H]1N=C(c2ccccn2)c2cc(Br)ccc2-n2ccnc21 [Example 2, (S)-methyl 3-(8-bromo-6-(pyridin-2-yl)-4H-benzo[f]imidazo[1,2-a][1,4]diazepin-4-yl)propanoate] |  | 0.13 | 3.92 |  | 55.90 | Emax at 30 µM [3, 4]: 358%; Duration of loss of consciousness ([2]; 6 mg/kg): 18.10 min
CCc1nnc2n1-c1ccc(Cl)cc1C(c1ccccn1)=N[C@H]2CCC(=O)OC [Example 30, (S)-methyl 3-(8-chloro-1-ethyl-6-(pyridin-2-yl)-4H-benzo[f][1,2,4]triazolo[4,3-a][1,4]diazepin-4-yl)propanoate] | 17.74 | 0.20 |  |  |  | 
COC(=O)CC[C@@H]1N=C(c2ccccn2)c2cc(Cl)ccc2-n2c(C3CCC3)cnc21 [Example 29, (S)-methyl 3-(8-chloro-1-cyclobutyl-6-(pyridin-2-yl)-4H-benzo[f]imidazo[1,2-a][1,4]diazepin-4-yl)propanoate] | 19.09 | 0.21 |  |  |  | 
[2H]Cc1cnc2n1-c1ccc(Br)cc1C(c1ccccn1)=N[C@H]2CCC(=O)OC [Example 6, (S)-methyl 3-(8-bromo-1-deuteromethyl-6-(pyridin-2-yl)-4H-benzo[f]imidazo[1,2-a][1,4]diazepin-4-yl)propanoate] | 23.95 | 0.17 |  |  |  | 
COC(=O)CC[C@@H]1N=C(c2ccccn2)c2cc(Br)ccc2-n2c(C)nnc21 [Example 4, (S)-methyl 3-(8-bromo-1-methyl-6-(pyridin-2-yl)-4H-benzo[f][1,2,4]triazolo[4,3-a][1,4]diazepin-4-yl)propanoate] | 19.14 |  |  | 6.01 | 45.00 | Emax at 30 µM [3, 4]: 472%
[2H]Cc1nnc2n1-c1ccc(Br)cc1C(c1ccccn1)=N[C@H]2CCC(=O)OC [Example 11, (S)-methyl 3-(8-bromo-1-deuteromethyl-6-(pyridin-2-yl)-4H-benzo[f][1,2,4]triazolo[4,3-a][1,4]diazepin-4-yl)propanoate] | 12.82 |  |  | 6.40 |  | Emax at 30 µM [3, 4]: 319%
COC(=O)CC[C@@H]1N=C(c2ccccn2)c2cc(Cl)ccc2-n2c(C3CC3)cnc21 [Example 21, (S)-methyl 3-(8-chloro-1-cyclopropyl-6-(pyridin-2-yl)-4H-benzo[f]imidazo[1,2-a][1,4]diazepin-4-yl)propanoate] | 23.23 |  |  |  |  | 
COCc1cnc2n1-c1ccc(Br)cc1C(c1ccccn1)=N[C@H]2CCC(=O)OC [Example 10, (S)-methyl 3-(8-bromo-1-(methoxymethyl)-6-(pyridin-2-yl)-4H-benzo[f]imidazo[1,2-a][1,4]diazepin-4-yl)propanoate] | 17.27 |  | 4.00 | 6.33 | 26.00 | Emax at 3 µM ([3]; concentration 3 μM, read-out: Emax (maximum percentage of current potentiation)): 197%; Duration of loss of consciousness ([2]; 6 mg/kg): 26.00 min
COC(=O)CC[C@@H]1N=C(c2ccccn2)c2cc(Br)ccc2-n2cnnc21 [Example 9, (S)-methyl 3-(8-bromo-6-(pyridin-2-yl)-4H-benzo[f][1,2,4]triazolo[4,3-a][1,4]diazepin-4-yl)propanoate] | 12.88 |  |  | 6.14 | 36.47 | Emax at 10 µM [3, 4]: 408%
COC(=O)CC[C@@H]1N=C(c2ccccc2)c2cc(Cl)ccc2-n2cnnc21 [Example 3, (S)-methyl 3-(8-chloro-6-phenyl-4H-benzo[f][1,2,4]triazolo[4,3-a][1,4]diazepin-4-yl)propanoate] | 11.76 |  |  | 6.02 |  | Emax at 30 µM [3, 4]: 325%
